Values of other authors in patent US20150309031A2, “COMPOSITIONS AND METHODS FOR PROGNOSIS AND TREATMENT OF CANCER” (NOVAZOI THERANOSTICS, priority 2013, published 2015).

Assays:
[1] = system: BT-549 breast cancer cells; conditions: BT-549 cells with amplified centrosomes; cited from earlier work
[2] = target: T1, KIFC1/microtubule (MT) binary complex (Homo sapiens, UniProt Q9BW19); conditions: read-out: Ki (ATP-competitive, MT-noncompetitive inhibition of MT-stimulated KIFC1 enzymatic activity); cited from earlier work
T1 sequence (Q9BW19 1-673): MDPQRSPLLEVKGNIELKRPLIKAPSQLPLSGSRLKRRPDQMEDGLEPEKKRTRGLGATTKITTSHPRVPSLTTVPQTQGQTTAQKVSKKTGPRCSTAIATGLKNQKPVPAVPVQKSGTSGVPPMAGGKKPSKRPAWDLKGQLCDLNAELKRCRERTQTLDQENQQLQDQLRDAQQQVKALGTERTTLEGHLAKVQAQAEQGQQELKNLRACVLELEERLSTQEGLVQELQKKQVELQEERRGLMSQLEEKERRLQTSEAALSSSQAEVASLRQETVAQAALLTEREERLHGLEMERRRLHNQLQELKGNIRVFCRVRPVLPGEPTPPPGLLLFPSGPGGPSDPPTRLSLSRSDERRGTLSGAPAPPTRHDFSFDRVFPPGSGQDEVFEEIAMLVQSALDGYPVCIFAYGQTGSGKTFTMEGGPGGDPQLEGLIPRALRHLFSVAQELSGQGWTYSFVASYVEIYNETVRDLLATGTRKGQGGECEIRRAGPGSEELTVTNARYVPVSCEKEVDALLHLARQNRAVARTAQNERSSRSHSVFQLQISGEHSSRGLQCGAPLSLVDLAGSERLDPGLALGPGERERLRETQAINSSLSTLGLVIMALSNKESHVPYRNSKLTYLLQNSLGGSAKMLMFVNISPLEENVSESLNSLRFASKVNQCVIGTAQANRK

CCCc1cc(C(=O)N[C@H](Cc2ccc(-c3cccc(OC(F)(F)F)c3)nc2)C(=O)N[C@@H]2CCNC2)sc1C [AZ82]
centrosome declustering [1]: causes centrosome declustering | Ki [2]: 43 nM
